Experiments:
[1] = test system: phosphorylation of EGFR (Tyr1068) in NCI-H1975 cell line that harbors the EGFR L858R T790M mutations; experiment: NCI-H1975 pEGFR AlphaLISA assay; type: cell-based; conditions: Homo sapiens, NCI-H1975, inhibition of phosphorylation of mutant EGFR in NCI-H1975 cells; 4-5 hours incubation; read-out: Ext pEGFR H1975
Method in brief: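 NCI-H1975 cells (EGFR L858R/T790M) seeded overnight, then treated with compound for 4-5 h at 37 °C/5% CO2. After lysis, p-EGFR (Tyr1068) quantified by AlphaLISA SureFire Ultra with acceptor then donor beads; IC50 fitted from percent inhibition versus log concentration.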

EGFR (L858R T790M C797S) = target: T1, EGFR (L858R T790M C797S) (Homo sapiens, UniProt P00533, C797S/L858R/T790M); experiment: Biochemical EGFR inhibition assay (Caliper mobility shift), EGFR LRTMCS mutant; conditions: inhibitory activity against EGFR LRTMCS mutant; apparent IC50; read-out: Ext Enz LRTMCS
T1 construct: purchased SignalChem E10-122VG
Method in brief: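 Kinase reactions at 25 °C run to 10–20% peptide phosphorylation, stopped with 35 mM EDTA. Phosphorylated product and substrate separated electrophoretically by mobility shift. Apparent IC50 from percent activity versus log compound concentration.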

T1 sequence (P00533 25-1210 T790M/C797S/L858R): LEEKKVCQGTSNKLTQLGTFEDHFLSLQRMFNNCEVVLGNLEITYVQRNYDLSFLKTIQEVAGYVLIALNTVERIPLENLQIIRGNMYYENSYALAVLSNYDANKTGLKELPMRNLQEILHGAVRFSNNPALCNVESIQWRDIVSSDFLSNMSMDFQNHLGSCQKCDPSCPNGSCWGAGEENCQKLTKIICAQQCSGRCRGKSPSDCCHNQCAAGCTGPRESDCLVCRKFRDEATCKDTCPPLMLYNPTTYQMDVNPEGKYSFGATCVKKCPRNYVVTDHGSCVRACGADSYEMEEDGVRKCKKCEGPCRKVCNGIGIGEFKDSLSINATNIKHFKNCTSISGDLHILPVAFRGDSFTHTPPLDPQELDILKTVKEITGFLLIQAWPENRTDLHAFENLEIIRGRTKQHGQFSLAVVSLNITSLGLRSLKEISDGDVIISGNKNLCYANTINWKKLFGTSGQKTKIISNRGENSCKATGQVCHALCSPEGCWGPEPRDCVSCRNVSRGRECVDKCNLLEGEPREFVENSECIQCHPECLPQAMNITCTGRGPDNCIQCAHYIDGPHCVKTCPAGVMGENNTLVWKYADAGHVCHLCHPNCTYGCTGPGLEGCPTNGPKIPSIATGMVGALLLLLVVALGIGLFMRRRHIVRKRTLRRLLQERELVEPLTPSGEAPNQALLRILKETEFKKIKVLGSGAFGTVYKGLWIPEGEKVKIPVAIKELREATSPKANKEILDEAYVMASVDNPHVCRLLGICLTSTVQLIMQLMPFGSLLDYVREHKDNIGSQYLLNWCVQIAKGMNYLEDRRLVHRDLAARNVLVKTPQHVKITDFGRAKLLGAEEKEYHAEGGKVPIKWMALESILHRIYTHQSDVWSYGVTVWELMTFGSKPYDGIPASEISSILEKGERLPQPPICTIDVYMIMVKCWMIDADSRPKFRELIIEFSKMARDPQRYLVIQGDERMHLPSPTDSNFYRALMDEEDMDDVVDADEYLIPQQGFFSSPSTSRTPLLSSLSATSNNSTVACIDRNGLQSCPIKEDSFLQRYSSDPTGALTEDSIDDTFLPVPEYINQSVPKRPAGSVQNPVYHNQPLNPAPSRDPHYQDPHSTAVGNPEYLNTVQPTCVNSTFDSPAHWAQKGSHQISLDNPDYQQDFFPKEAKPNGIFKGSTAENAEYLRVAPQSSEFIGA

`CC(C)c1ccc(N2CC(CS(C)(=O)=O)C2)c2cnc(Nc3ccnc(N4CCC5(CC4)OCCO5)n3)cc12` [Compound 88, N-(2-{1,4-dioxa-8-azaspiro[4.5]decan-8-yl}pyrimidin-4-yl)-8-[3-(methanesulfonylmethyl)azetidin-1-yl]-5-(propan-2-yl)isoquinolin-3-amine] showed an IC50 [1] of 20.1 to 30 nM and an IC50 (EGFR (L858R T790M C797S)) of no more than 15 nM.
With `CO[C@H]1CCN(c2nccc(Nc3cc4c(C(C)C)cnc(N5C[C@H](CS(C)(=O)=O)[C@H]5C)c4cn3)n2)C[C@H]1F` [Compound 131, N-{2-[(3R,4S)-3-fluoro-4-methoxypiperidin-1-yl]pyrimidin-4-yl}-8-[(2R,3S)-3-(methanesulfonylmethyl)-2-methylazetidin-1-yl]-5-(propan-2-yl)-2,7-naphthyridin-3-amine] the IC50 [1] was no more than 10 nM and the IC50 (EGFR (L858R T790M C797S)) was no more than 15 nM.
With `CO[C@@H]1CCN(c2nccc(Nc3cc4c(C(C)C)cnc(N5C[C@H](CS(C)(=O)=O)[C@H]5C)c4cn3)n2)C[C@@H]1F` [Compound 132, N-{2-[(3S,4R)-3-fluoro-4-methoxypiperidin-1-yl]pyrimidin-4-yl}-8-[(2R,3S)-3-(methanesulfonylmethyl)-2-methylazetidin-1-yl]-5-(propan-2-yl)-2,7-naphthyridin-3-amine] the IC50 [1] was no more than 10 nM and the IC50 (EGFR (L858R T790M C797S)) was no more than 15 nM.
With `CO[C@H]1CCN(c2nncc(Nc3cc4c(C(C)C)ccc(N5C[C@H](CS(C)(=O)=O)[C@H]5C)c4cn3)n2)C[C@H]1F` [Compound 133, N-{3-[(3R,4S)-3-fluoro-4-methoxypiperidin-1-yl]-1,2,4-triazin-5-yl}-8-[(2R,3S)-3-(methanesulfonylmethyl)-2-methylazetidin-1-yl]-5-(propan-2-yl)isoquinolin-3-amine] the IC50 [1] was no more than 10 nM and the IC50 (EGFR (L858R T790M C797S)) was no more than 15 nM.
`CO[C@@H]1CCN(c2nncc(Nc3cc4c(C(C)C)ccc(N5C[C@H](CS(C)(=O)=O)[C@H]5C)c4cn3)n2)C[C@@H]1F` [Compound 134, N-(3-((3S,4R)-3-fluoro-4-methoxypiperidin-1-yl)-1,2,4-triazin-5-yl)-5-isopropyl-8-((2R,3S)-2-methyl-3-(methylsulfonylmethyl)azetidin-1-yl)isoquinolin-3-amine] was tested, and the IC50 [1] was no more than 10 nM and the IC50 (EGFR (L858R T790M C797S)) was no more than 15 nM.
`CO[C@@H]1CCN(c2nccc(Nc3cc4c(C(C)C)ncc(N5C[C@H](CS(C)(=O)=O)[C@H]5C)c4cn3)n2)C[C@@H]1F` [Compound 139, N-{2-[(3S,4R)-3-fluoro-4-methoxypiperidin-1-yl]pyrimidin-4-yl}-8-[(2R,3S)-3-(methanesulfonylmethyl)-2-methylazetidin-1-yl]-5-(propan-2-yl)-2,6-naphthyridin-3-amine] was tested, and the IC50 [1] was no more than 10 nM and the IC50 (EGFR (L858R T790M C797S)) was no more than 15 nM.
`CO[C@H]1CCN(c2nccc(Nc3cc4c(C(C)C)ncc(N5C[C@H](CS(C)(=O)=O)[C@H]5C)c4cn3)n2)C[C@H]1F` [Compound 140, N-{2-[(3R,4S)-3-fluoro-4-methoxypiperidin-1-yl]pyrimidin-4-yl}-8-[(2R,3S)-3-(methanesulfonylmethyl)-2-methylazetidin-1-yl]-5-(propan-2-yl)-2,6-naphthyridin-3-amine] showed an IC50 [1] of no more than 10 nM and an IC50 (EGFR (L858R T790M C797S)) of no more than 15 nM.
In the case of `CO[C@@H]1CCN(c2nccc(Nc3cc4c(C(C)C)ncc(N5CC(CS(C)(=O)=O)C5)c4cn3)n2)C[C@]1(C)F` [Compound 144, N-{2-[(3S,4R)-3-fluoro-4-methoxy-3-methylpiperidin-1-yl]pyrimidin-4-yl}-8-[3-(methanesulfonylmethyl)azetidin-1-yl]-5-(propan-2-yl)-2,6-naphthyridin-3-amine], the IC50 [1] is reported as no more than 10 nM and the IC50 (EGFR (L858R T790M C797S)) is reported as no more than 15 nM.
`CO[C@@H]1CCN(c2nccc(Nc3cc4c(C(C)C)nnc(N5C[C@H](CS(C)(=O)=O)[C@H]5C)c4cn3)n2)C[C@@H]1F` [Compound 150, N-(2-((3S,4R)-3-fluoro-4-methoxypiperidin-1-yl)pyrimidin-4-yl)-1-isopropyl-4-((2R,3S)-2-methyl-3-(methylsulfonylmethyl)azetidin-1-yl)pyrido[4,3-d]pyridazin-7-amine] gave an IC50 [1] of 20.1 to 30 nM and an IC50 (EGFR (L858R T790M C797S)) of no more than 15 nM.
